The values below come from ChEMBL document CHEMBL5543125, “Discovery of 2,3-Dihydro[1,4]dioxino[2,3-g]benzofuran Derivatives as Protease Activated Receptor 4 (PAR4) Antagonists with Potent Antiplatelet Aggregation Activity and Low Bleeding Tendency” (J Med Chem, 2024).

Data set [1] in a line: Metabolic stability in human liver microsomes assessed as half life at 1 uM preincubated for 1 hr followed by NADPH addition and measured upto 60 mins by LC-MS/MS analysis. In kind it is ADME, Microsome. To be noted: time < 120 min. In general terms: Liver microsomes are vesicles of endoplasmic reticulum, rich in cytochrome P450 enzymes.
For data set [2], the target named is T1, Proteinase-activated receptor 4 (Homo sapiens) (UniProt Q96RI0).
T1 sequence (whole entry): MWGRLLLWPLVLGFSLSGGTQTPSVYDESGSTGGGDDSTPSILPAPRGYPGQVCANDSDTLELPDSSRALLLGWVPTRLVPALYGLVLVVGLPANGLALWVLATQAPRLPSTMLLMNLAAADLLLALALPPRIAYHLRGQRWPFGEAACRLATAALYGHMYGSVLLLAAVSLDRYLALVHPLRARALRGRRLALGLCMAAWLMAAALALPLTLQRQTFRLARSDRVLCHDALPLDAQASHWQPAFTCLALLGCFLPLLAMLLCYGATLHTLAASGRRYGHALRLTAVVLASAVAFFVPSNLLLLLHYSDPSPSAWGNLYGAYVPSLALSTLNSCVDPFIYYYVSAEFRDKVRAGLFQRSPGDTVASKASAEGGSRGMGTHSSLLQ
Put plainly: Antagonist activity at PAR4 in human filtered plasma assessed as inhibition of PAR4-activated peptide AYPGPK-NH2 induced platelet aggregation at 10 nM preincubated for 5 mins followed by aggregation inducer addition and measured after 5 mins by light transmission aggregometry relative to control. In kind it is functional, cell-free. To be noted: filed as antagonist, time 10.0 min.

In data set [3] the test system is Platelet. Put plainly: Antiplatelet aggregation activity in human plasma assessed as inhibition of thrombin induced platelet aggregation by measuring residual aggregation rate at 20 nM to 1 uM preincubated for 5 mins followed by aggregation inducer addition and measured after 5 mins by light transmission aggregometry relative to control. In kind it is functional. The following applies: dose 20-1000 nM, time 10 min, at 20 to 1000 nM.

Data set [4] concerns the target T2, Platelet glycoprotein VI (Homo sapiens) (UniProt Q9HCN6).
T2 sequence (whole entry): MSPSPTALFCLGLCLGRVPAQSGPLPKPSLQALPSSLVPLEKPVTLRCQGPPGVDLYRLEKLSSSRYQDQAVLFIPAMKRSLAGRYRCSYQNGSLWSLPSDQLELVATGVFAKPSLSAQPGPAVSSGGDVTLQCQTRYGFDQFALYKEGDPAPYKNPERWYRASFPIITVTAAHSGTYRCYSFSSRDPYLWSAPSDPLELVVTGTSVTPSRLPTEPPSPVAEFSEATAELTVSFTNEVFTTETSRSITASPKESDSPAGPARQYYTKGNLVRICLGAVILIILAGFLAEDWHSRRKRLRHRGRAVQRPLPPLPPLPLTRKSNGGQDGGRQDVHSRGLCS
Put plainly: Antagonist activity at GPVI in human plasma assessed as inhibition of collagen-induced platelet aggregation at 20 nM to 1 uM preincubated for 5 mins followed by aggregation inducer addition and measured after 5 mins by light transmission aggregometry. The following applies: dose 20-1000 nM, time 10.0 min. In kind it is cell-free.

For data set [5], the target named is T3, Proteinase-activated receptor 1 (Homo sapiens) (UniProt P25116).
T3 sequence (whole entry): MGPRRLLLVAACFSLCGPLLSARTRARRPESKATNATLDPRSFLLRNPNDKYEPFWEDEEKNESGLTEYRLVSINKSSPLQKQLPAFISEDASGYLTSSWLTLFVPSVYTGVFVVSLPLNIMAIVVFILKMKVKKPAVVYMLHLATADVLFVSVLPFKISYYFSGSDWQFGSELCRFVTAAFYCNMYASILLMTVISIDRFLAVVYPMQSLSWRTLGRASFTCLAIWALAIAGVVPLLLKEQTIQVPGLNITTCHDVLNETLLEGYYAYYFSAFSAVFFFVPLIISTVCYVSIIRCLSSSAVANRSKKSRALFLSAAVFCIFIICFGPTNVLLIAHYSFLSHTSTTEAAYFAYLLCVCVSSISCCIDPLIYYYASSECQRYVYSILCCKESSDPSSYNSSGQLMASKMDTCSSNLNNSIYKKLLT
The data set is described as follows: Antagonist activity at PAR1 in human plasma assessed as inhibition of PAR1-activated peptide SFLLRNPNDKY induced platelet aggregation upto 9 uM preincubated for 5 mins followed by aggregation inducer addition and measured after 5 mins by light transmission aggregometry. In kind it is functional, cell-free. To be noted: time 10.0 min.

Data set [6] has as its target T1, Proteinase-activated receptor 4 (Homo sapiens). The data set is described as follows: Antagonist activity at PAR4 in human plasma assessed as inhibition of PAR4-activated peptide AYPGPK-NH2 induced platelet aggregation by measuring residual aggregation rate at 20 nM to 1 uM preincubated for 5 mins followed by aggregation inducer addition and measured after 5 mins by light transmission aggregometry relative to control. In kind it is functional, cell-free. To be noted: filed as antagonist, dose 20-1000 nM, time 10.0 min.

Data set [7] has as its system Platelet. Put plainly: Inhibition of platelet aggregation in human platelet rich plasma preincubated for 5 mins followed by aggregation inducer addition and measured after 5 mins by light transmission aggregometry. In kind it is functional, cell-based.
Data set [8] can be described thus: Oral bioavailability in Sprague-Dawley rat at 50 mg/kg. Format: ADME, organism-based. The following applies: in vivo.
For data set [9], the system named is Platelet. The data set is described as follows: Antagonist activity at GPIB/vWF in human plasma assessed as inhibition of ristocetin-induced platelet aggregation at 20 nM to 1 uM preincubated for 5 mins followed by aggregation inducer addition and measured after 5 mins by light transmission aggregometry. To be noted: dose 20-1000 nM, time 10.0 min. In kind it is cell-free.

The target of data set [10] is T4, Thromboxane A2 receptor (Homo sapiens) (UniProt P21731).
T4 sequence (whole entry): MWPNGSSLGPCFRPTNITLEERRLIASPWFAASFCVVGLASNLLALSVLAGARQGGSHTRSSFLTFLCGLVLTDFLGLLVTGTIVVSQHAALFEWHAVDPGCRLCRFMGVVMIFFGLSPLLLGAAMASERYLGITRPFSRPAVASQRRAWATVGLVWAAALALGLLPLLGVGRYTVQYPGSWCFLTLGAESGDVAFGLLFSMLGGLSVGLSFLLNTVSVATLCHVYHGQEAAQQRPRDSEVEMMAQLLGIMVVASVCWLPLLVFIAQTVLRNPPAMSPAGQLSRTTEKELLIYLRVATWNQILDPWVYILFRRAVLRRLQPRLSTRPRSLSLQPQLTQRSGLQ
The data set is described as follows: Antagonist activity at thromboxane A2 receptor in human plasma assessed as inhibition of U46619-induced platelet aggregation at 20 nM to 1 uM preincubated for 5 mins followed by aggregation inducer addition and measured after 5 mins by light transmission aggregometry. In kind it is functional, cell-free. The following applies: dose 20-1000 nM, time 10.0 min.

Data set [11] has as its target T3, Proteinase-activated receptor 1 (Homo sapiens). The data set is described as follows: Antagonist activity at PAR1 in human plasma assessed as inhibition of PAR1-activated peptide SFLLRNPNDKY induced platelet aggregation at 20 nM to 1 uM preincubated for 5 mins followed by aggregation inducer addition and measured after 5 mins by light transmission aggregometry. In kind it is functional, cell-free. To be noted: dose 20-1000 nM, time 10.0 min.

Data set [12] has as its system Platelet. Put plainly: Antagonist activity at P2Y1/P2Y12 in human plasma assessed as inhibition of ADP-induced platelet aggregation at 20 nM to 1 uM preincubated for 5 mins followed by aggregation inducer addition and measured after 5 mins by light transmission aggregometry. Format: cell-free. The following applies: dose 20-1000 nM, time 10.0 min.
Data set [13] relates to Platelet. Put plainly: Inhibition of platelet aggregation in human platelet rich plasma at 20 uM preincubated for 5 mins followed by aggregation inducer addition and measured after 5 mins by light transmission aggregometry relative to control. The following applies: 10 min. Format: functional.
Data set [14] deals with T1, Proteinase-activated receptor 4 (Homo sapiens). The data set is described as follows: Antagonist activity at PAR4 in human filtered plasma assessed as inhibition of PAR4-activated peptide AYPGPK-NH2 induced platelet aggregation at 3 nM preincubated for 5 mins followed by aggregation inducer addition and measured after 5 mins by light transmission aggregometry. Format: functional, cell-free. To be noted: filed as antagonist, time 10.0 min.

Each structure is given as a SMILES string. Activity calls are given as the source filed them. No cut-off for these calls is given here.

For orientation: half-life means how long it takes for the measured level to halve. A word on the inhibition: it is the drop in the measured response relative to a control, in per cent. For orientation: IC50 means the point on the concentration scale where inhibition reaches its midpoint. The low end stands for higher potency, the high end for lower potency. By bioavailability is commonly meant the share of a dose that reaches the circulation, judged against a reference dose that is usually intravenous.

As for `COc1nn2cc(-c3cc4ccc5c(c4o3)OCCO5)nc2s1`, the half-life at 1 µM in data set [1] came to 12.2 min. Moreover, the inhibition in [2] worked out at 100%. Also, the Activity in data set [3] and in data set [6] was less than 30% each time. Also, the result in [4], in data set [5], in [9], in [10], in [11] and in data set [12] was inactive. This compound gave an IC50 in data set [7] of 3.2 nM. In [8], this compound came in with a bioavailability of 0.94%. This compound also came in with an inhibition at 20 µM in data set [13] of 90.5%. For the same compound, in data set [14], the result was Active.
